We go through six compounds from patent US20120178796A1, “SPLICE VARIANTS” (priority 2009, published 2012).

Holding throughout (assay type): cell-based, human
Assay [1] relates to p53. As to the kind of experiment: Immunoblot of p53 protein and p53 acetylation after siRNA silencing or stress, ARPE19 cells. The note with it: for p53 induction in response to DNA damaging agent: agent alone. The procedure:
(§1) Isogenic colorectal carcinoma cell lines HCT116 p53+/+ and HCT116 p53-/- were cultured in DMEM supplemented with 10% FBS. Non-cancer retinal epithelial cell line ARPE-19 was cultured in DMEM:F12 supplemented with 10% FBS. Cells used in experiments were low passage number (not >8 splits from nitrogen). Transfection of siRNA were as described (Ford et al., 2005; Ford et al., 2008). SIRT1 FL siRNA (targeting SIRT1 FL and SIRT1 ΔEx3-4) is sited within exon8; SIRT1 ΔEx8 siRNA (targeting SIRT1 ΔEx8 and SIRT1 ΔEx3-4-8) is located across the alternate exon7-exon9 splice. Sequences and locations of siRNAs are detailed in the Supplementary Table 3.

For assay [2], the system named is p53. Nature of the assay: Immunoblot of p53 protein and p53 acetylation after siRNA silencing, HCT116 cells. The protocol:
as §1

The subject of assay [3] is HCT116 colorectal cancer cells. Nature of the assay: Apoptosis after siRNA silencing (micrographs, annexin V staining), HCT116 cells. Particulars: single dose of siRNA, basal conditions. The procedure:
as §1
(§2) Digital phase contrast cell images were captured on an Axiovert Cell Observer (Zeiss). Quantification of apoptosis was performed using an AnnexinV-Fluos kit (Roche) according to the manufacturer's instructions, with analysis by flow cytometry on a FACSCalibur (BD) using CellQuest software.

Assay [4] relates to ARPE19 non-cancer epithelial cells. As to the kind of experiment: Apoptosis after siRNA silencing, ARPE19 cells. The procedure: as §1, §2
Assay [5] deals with ARPE19 retinal epithelial cells. As to the kind of experiment: Morphological neuronal differentiation of ARPE19 cells (phase contrast micrographs). Particulars: for morphological differentiation towards neuronal phenotype after siRNA silencing: 72 h to 96 hr after siRNA. The protocol:
as §1, §2
Cells were treated for 48 h with 1 μM fenretinide in OPTIMEM media 24 h following siRNA transfection. Before addition of fenretinide cells were first washed with OPTIMEM to remove serum. 48 h later fenretinide was removed by washing with OPTIMEM and normal growth media with serum was added. Cells were then monitored by microscopy for a further 48 h.

Assay [6] concerns SIRT1 Δ2-9 mRNA. As to the kind of experiment: SIRT1 Δ2-9 mRNA knock-down by RT-PCR in ARPE19 and HCT116 cells. The procedure: as §1
Standard RT-PCR was performed on a DNA Engine Dyad (MJ Research) using a One-Step RT-PCR kit (Qiagen). Reaction endpoints were electrophoresed on agarose gels, visualised on a UV transilluminator (Appligene) and images captured with a DS34 camera (Polaroid). […] Total RNA from cell experiments was isolated using an RNeasy kit (Qiagen) and quantitated by UV spectroscopy (GeneSpecV). For qRT-PCR, reactions were run in quadruplicate on a DNA Engine Opticon (BioRad) using a QuantiTect SYBR Green RT-PCR kit (Qiagen). […]
In order to look at the functional significance of SIRT1 Δ2-9, a siRNA was designed to the splice junction region of exon-2 and exon-9. […] These changes were also confirmed by quantitative RT-PCR (FIG. 20E). […]

For the compound `COc1cc([C@@H]2c3cc4c(cc3[C@@H](O[C@@H]3O[C@@H]5CO[C@@H](C)O[C@H]5[C@H](O)[C@H]3O)[C@H]3COC(=O)[C@H]23)OCO4)cc(OC)c1O` [Etoposide, reference compound], the “p53 induction in response to DNA damaging agent” value in assay [1] is “induced substantially”.

Take ACUUUGCUGUAACCCUGUA [SIRT1 FL siRNA]: the “accumulation of total p53 protein” value in assay [2] (HCT116 cells, basal conditions) is on record as “approximately 10 fold”. In addition, the “increase of p53 acetylation levels” value in assay [2] (HCT116 cells, basal conditions) is given as “more than 50 fold”. Further, the induction of apoptosis result in assay [3] is “induced massive apoptosis”; in assay [4], “fails to induce apoptosis”. For the same compound, in assay [5], the “morphological differentiation towards neuronal phenotype after siRNA silencing” value is reported as “induces neuronal differentiation”.

Turning to `O=c1[nH]cc(F)c(=O)[nH]1` [SFU, reference compound], the “p53 induction in response to DNA damaging agent” value in assay [1] is “induced substantially”.

Consider CCUUCUGUUCGUUCUUGUG [SIRT1 Δ2-9 siRNA], for which the “p53 protein level (Western blot)” value in assay [2] (HCT116 p53+/+ cells) and in assay [1] was “significantly reduced” in each case. In addition, the “stress-induced p53 induction in siRNA treated samples” value in assay [1] (Etoposide, UV or 5FU in combination with siRNA) is “attenuated”. The “SIRT1 Δ2-9 mRNA expression” value in assay [6] is “almost completely abolished”.

Take UAAUUCCAAGUAAUCAGUA [SIRT1 ΔEx8 siRNA]: in assay [2] (HCT116 cells, basal conditions), the “accumulation of total p53 protein” value was “A similar effect was not observed”. Moreover, the induction of apoptosis entry in assay [3] is “did not induce apoptosis”. In assay [5], the “morphological differentiation towards neuronal phenotype after siRNA silencing” value is “did not induce morphological differentiation”.

Turning to `CC1=C(/C=C/C(C)=C/C=C/C(C)=C/C(=O)Nc2ccc(O)cc2)C(C)(C)CCC1` [fenretinide, reference compound], the “neuronal differentiation induced by compound” value in assay [5] (1 μM, 48 h, OPTIMEM) is listed as “can be induced”.
